# Measurements from PMC5362750, “Discovery of Potent, Selective, and Orally Bioavailable Small-Molecule Modulators of the Mediator Complex-Associated Kinases CDK8 and CDK19” (Journal of Medicinal Chemistry, 2016).
# How the values were obtained:
# [1] = biological target: CCK2 (CCKB) (h) (Homo sapiens, UniProt P32239); experiment: CEREP binding assay; conditions: agonist radioligand, read-out: % Inhibition of Control Specific Binding
# [2] = biological target: T1, V2 (h) (Homo sapiens, UniProt P30518); experiment: CEREP binding assay; conditions: agonist radioligand, read-out: % Inhibition of Control Specific Binding
# T1 construct: CEREP
# T1 sequence (P30518 whole entry): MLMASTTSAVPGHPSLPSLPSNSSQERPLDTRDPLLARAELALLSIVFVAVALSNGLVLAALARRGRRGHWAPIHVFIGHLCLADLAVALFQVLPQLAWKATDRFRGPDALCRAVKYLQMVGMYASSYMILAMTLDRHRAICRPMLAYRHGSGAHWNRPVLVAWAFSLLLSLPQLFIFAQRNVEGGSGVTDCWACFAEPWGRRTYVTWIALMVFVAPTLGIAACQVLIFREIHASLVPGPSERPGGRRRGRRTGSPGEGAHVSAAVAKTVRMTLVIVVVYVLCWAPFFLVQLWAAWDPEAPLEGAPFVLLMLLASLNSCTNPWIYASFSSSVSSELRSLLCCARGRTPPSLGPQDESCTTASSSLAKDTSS
# [3] = biological target: T2, choline transporter (CHT1) (h) (Homo sapiens, UniProt Q9GZV3); experiment: CEREP binding assay; conditions: antagonist radioligand, read-out: % Inhibition of Control Specific Binding
# T2 construct: CEREP
# T2 sequence (Q9GZV3 whole entry): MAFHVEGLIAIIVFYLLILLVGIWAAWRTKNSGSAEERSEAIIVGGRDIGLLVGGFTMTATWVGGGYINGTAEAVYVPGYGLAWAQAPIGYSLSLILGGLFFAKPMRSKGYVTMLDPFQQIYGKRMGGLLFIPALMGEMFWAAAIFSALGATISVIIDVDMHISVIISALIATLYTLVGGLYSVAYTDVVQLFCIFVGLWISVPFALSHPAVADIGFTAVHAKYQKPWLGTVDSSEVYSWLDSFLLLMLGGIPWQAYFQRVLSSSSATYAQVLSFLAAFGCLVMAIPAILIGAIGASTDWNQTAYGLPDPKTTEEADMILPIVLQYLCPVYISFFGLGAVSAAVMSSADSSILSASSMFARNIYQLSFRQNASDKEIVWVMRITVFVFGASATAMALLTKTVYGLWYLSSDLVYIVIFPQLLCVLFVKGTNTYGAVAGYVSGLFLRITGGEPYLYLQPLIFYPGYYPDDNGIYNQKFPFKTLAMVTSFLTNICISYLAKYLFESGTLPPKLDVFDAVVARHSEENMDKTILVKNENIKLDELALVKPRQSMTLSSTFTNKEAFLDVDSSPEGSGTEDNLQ
# [4] = biological target: T3, EPHA3 (Homo sapiens, UniProt P29320); experiment: Kinase panel (Millipore); type: biochemical; conditions: 1 µM, ATP at Km
# T3 construct: purchased Millipore (KinaseProfiler) kinase panel
# [5] = biological target: T4, LKB1 (Homo sapiens, UniProt Q15831); experiment: Kinase panel (Millipore); type: biochemical; conditions: 1 µM, ATP at Km
# T4 construct: purchased Millipore (KinaseProfiler) kinase panel
# [6] = biological target: T5, AXL (Homo sapiens, UniProt P30530); experiment: Kinase panel (Millipore); type: biochemical; conditions: 1 µM, ATP at Km
# T5 construct: purchased Millipore (KinaseProfiler) kinase panel
# [7] = biological target: T6, EPHB2 (Homo sapiens, UniProt P29323); experiment: Kinase panel (Millipore); type: biochemical; conditions: 1 µM, ATP at Km
# T6 construct: purchased Millipore (KinaseProfiler) kinase panel
# [8] = biological target: FES (Homo sapiens, UniProt P07332); experiment: Kinase panel (Millipore); type: biochemical; conditions: 1 µM, ATP at Km
# Sequence of FES (P07332 whole entry): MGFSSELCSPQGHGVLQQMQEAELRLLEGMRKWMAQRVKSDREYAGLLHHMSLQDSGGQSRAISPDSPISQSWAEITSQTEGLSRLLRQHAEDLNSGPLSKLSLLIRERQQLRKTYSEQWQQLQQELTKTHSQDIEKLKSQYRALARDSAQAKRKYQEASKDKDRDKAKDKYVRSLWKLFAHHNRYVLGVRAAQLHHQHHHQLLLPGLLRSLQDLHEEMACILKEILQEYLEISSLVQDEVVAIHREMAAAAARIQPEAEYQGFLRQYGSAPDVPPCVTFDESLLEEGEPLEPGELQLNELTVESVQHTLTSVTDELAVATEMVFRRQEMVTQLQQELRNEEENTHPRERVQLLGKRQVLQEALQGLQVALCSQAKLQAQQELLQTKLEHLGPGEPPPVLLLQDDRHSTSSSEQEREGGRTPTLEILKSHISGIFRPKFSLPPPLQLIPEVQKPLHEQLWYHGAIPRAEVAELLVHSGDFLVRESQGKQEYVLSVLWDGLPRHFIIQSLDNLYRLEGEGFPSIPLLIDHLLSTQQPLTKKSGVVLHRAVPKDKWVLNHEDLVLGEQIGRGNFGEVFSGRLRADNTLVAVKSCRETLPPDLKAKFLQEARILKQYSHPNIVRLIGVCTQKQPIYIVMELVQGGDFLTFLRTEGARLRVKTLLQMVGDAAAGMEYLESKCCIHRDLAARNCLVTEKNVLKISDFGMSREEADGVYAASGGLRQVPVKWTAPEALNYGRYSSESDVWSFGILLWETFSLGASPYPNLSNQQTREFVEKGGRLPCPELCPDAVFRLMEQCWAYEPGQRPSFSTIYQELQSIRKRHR
# [9] = biological target: MARK1 (Homo sapiens, UniProt Q9P0L2); experiment: Kinase panel (Millipore); type: biochemical; conditions: 1 µM, ATP at Km
# [10] = biological target: T7, FGFR3 (Homo sapiens, UniProt P22607); experiment: Kinase panel (Millipore); type: biochemical; conditions: 1 µM, ATP at Km
# T7 construct: purchased Millipore (KinaseProfiler) kinase panel
# [11] = biological target: T8, MNK2 (Homo sapiens, UniProt Q9HBH9); experiment: Kinase panel (Millipore); type: biochemical; conditions: 1 µM, ATP at Km
# T8 construct: purchased Millipore (KinaseProfiler) kinase panel
# [12] = biological target: MSK1 (Homo sapiens, UniProt O75582); experiment: Kinase panel (Millipore); type: biochemical; conditions: 1 µM, ATP at Km
# [13] = biological target: CHK1 (Homo sapiens, UniProt O14757); experiment: Kinase panel (Millipore); type: biochemical; conditions: 1 µM, ATP at Km
# Sequence of CHK1 (O14757 whole entry): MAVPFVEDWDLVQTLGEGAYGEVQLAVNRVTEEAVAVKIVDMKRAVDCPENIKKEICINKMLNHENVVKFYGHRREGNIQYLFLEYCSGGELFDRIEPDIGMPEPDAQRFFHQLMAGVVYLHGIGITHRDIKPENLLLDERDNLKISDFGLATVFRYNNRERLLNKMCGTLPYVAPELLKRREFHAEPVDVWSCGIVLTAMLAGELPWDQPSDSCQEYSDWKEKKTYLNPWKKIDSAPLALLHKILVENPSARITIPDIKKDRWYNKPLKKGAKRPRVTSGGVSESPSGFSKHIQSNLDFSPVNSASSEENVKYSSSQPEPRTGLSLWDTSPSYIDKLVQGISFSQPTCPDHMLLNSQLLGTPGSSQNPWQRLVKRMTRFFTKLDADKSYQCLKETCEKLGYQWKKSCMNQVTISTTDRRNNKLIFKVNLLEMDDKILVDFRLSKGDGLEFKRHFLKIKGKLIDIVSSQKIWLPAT
# [14] = biological target: T9, HIPK2 (Homo sapiens, UniProt Q9H2X6); experiment: Kinase panel (Millipore); type: biochemical; conditions: 1 µM, ATP at Km
# T9 construct: purchased Millipore (KinaseProfiler) kinase panel
# T9 sequence (Q9H2X6 whole entry): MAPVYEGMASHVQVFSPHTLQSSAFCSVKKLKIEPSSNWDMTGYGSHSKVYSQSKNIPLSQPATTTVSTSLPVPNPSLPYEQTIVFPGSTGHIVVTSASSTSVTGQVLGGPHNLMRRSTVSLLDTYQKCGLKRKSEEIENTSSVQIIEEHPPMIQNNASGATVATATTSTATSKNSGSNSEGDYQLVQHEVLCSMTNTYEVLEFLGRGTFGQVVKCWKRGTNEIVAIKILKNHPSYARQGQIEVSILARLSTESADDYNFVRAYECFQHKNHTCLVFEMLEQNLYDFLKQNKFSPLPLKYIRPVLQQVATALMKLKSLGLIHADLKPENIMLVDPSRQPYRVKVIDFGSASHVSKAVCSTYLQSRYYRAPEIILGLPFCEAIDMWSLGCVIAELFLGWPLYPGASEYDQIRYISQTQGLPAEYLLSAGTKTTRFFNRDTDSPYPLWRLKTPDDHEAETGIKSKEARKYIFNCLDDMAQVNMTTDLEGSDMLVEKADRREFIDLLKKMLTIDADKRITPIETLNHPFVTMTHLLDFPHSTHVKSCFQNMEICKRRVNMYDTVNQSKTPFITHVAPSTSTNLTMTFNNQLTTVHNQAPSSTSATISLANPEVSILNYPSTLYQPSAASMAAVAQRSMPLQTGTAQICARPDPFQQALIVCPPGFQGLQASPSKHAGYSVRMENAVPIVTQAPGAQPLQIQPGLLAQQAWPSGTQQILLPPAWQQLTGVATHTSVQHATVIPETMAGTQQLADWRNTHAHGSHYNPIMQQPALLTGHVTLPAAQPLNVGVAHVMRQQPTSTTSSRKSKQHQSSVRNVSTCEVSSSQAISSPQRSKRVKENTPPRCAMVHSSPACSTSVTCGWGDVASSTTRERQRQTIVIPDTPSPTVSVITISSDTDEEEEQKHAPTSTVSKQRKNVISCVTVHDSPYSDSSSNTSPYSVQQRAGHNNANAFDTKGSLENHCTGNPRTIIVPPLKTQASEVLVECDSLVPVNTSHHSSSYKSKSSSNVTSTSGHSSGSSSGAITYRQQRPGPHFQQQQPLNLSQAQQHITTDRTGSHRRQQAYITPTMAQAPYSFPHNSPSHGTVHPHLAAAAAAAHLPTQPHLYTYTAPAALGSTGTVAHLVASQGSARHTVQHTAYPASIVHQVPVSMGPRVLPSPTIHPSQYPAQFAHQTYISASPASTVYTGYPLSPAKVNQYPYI
# [15] = biological target: DMPK (Homo sapiens, UniProt Q09013); experiment: Kinase panel (Millipore); type: biochemical; conditions: 1 µM, ATP at Km
# [16] = biological target: T10, MER (Homo sapiens, UniProt Q12866); experiment: Kinase panel (Millipore); type: biochemical; conditions: 1 µM, ATP at Km
# T10 construct: purchased Millipore (KinaseProfiler) kinase panel
# [17] = biological target: SAPK3 (Homo sapiens, UniProt P53778); experiment: Kinase panel (Millipore); type: biochemical; conditions: 1 µM, ATP at Km
# [18] = biological target: CAMKIDELTA (Homo sapiens, UniProt Q8IU85); experiment: Kinase panel (Millipore); type: biochemical; conditions: 1 µM, ATP at Km
# [19] = biological target: T11, SNK (Homo sapiens, UniProt Q9NYY3); experiment: Kinase panel (Millipore); type: biochemical; conditions: 1 µM, ATP at Km
# T11 construct: purchased Millipore (KinaseProfiler) kinase panel
# [20] = biological target: SYK (Homo sapiens, UniProt P43405); experiment: Kinase panel (Millipore); type: biochemical; conditions: 1 µM, ATP at Km
# [21] = biological target: T12, TBK1 (Homo sapiens, UniProt Q9UHD2); experiment: Kinase panel (Millipore); type: biochemical; conditions: 1 µM, ATP at Km
# T12 construct: purchased Millipore (KinaseProfiler) kinase panel
# T12 sequence (Q9UHD2 whole entry): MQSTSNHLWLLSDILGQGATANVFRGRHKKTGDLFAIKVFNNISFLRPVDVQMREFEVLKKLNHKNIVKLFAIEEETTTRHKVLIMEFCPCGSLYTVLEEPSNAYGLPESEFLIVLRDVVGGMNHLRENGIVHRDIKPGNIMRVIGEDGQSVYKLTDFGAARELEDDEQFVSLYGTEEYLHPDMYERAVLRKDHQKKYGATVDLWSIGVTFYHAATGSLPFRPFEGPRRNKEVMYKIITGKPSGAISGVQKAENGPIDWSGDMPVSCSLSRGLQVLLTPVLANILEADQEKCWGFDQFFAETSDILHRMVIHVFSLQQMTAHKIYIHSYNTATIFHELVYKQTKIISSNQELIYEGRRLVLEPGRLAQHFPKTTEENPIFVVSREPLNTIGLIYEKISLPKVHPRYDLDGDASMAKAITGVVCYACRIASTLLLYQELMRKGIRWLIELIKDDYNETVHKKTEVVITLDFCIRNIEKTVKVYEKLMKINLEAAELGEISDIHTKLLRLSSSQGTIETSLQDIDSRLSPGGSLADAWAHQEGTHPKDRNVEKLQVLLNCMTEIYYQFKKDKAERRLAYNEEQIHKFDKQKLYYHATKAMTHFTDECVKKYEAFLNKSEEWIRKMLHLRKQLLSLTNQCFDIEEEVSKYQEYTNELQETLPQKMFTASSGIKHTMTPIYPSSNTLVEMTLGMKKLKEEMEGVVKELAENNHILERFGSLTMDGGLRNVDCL
# [22] = biological target: T13, TLK2 (Homo sapiens, UniProt Q86UE8); experiment: Kinase panel (Millipore); type: biochemical; conditions: 1 µM, ATP at Km
# T13 construct: purchased Millipore (KinaseProfiler) kinase panel
# [23] = biological target: PKCGAMMA (Homo sapiens, UniProt P05129); experiment: Kinase panel (Millipore); type: biochemical; conditions: 1 µM, ATP at Km
# [24] = biological target: T14, WNK3 (Homo sapiens, UniProt Q9BYP7); experiment: Kinase panel (Millipore); type: biochemical; conditions: 1 µM, ATP at Km
# T14 construct: purchased Millipore (KinaseProfiler) kinase panel
# [25] = biological target: CLK2 (Homo sapiens, UniProt P49760); experiment: Kinase panel (Millipore); type: biochemical; conditions: 1 µM, ATP at Km
# [26] = biological target: T15, PTK5 (Homo sapiens, UniProt P42685); experiment: Kinase panel (Millipore); type: biochemical; conditions: 1 µM, ATP at Km
# T15 construct: purchased Millipore (KinaseProfiler) kinase panel
# [27] = biological target: T16, RET (Homo sapiens, UniProt P07949); experiment: Kinase panel (Millipore); type: biochemical; conditions: 1 µM, ATP at Km
# T16 construct: purchased Millipore (KinaseProfiler) kinase panel
# [28] = biological target: T17, CLK3 (Homo sapiens, UniProt P49761); experiment: Kinase panel (Millipore); type: biochemical; conditions: 1 µM, ATP at Km
# T17 construct: purchased Millipore (KinaseProfiler) kinase panel
# [29] = female, Beagle, dog, in vivo
# [30] = system: NMDA; conditions: 10 µM, antagonist radioligand
# [31] = system: glycine (strychnine-insensitive); conditions: 10 µM, antagonist radioligand
# [32] = system: MT3 (ML2); conditions: 10 µM, agonist radioligand
# [33] = system: sigma (non-selective) (h); conditions: 10 µM, agonist radioligand
# [34] = biological target: CKIT(D816V) (Homo sapiens, UniProt P10721, D816V); conditions: 1 µM, ATP at Km
# [35] = biological target: CK2ALPHA2 (Homo sapiens, UniProt P19784); conditions: 1 µM, ATP at Km
# Sequence of CK2ALPHA2 (P19784 whole entry): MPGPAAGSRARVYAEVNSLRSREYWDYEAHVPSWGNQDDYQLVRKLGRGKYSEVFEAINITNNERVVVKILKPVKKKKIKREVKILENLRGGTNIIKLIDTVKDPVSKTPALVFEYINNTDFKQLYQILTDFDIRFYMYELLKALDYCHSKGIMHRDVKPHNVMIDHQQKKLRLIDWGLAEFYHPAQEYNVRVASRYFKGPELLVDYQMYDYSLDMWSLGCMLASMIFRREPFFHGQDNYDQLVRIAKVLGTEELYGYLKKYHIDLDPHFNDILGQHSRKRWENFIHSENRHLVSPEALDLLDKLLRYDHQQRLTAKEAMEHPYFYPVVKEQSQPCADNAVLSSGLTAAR
# [36] = biological target: EGFR(L861Q) (Homo sapiens, UniProt P00533, L861Q); conditions: 1 µM, ATP at Km
# [37] = biological target: ABL (Q252H) (Homo sapiens, UniProt P00519, Q252H); conditions: 1 µM, ATP at Km
# [38] = biological target: ABL(Y253F) (Homo sapiens, UniProt P00519, Y253F); conditions: 1 µM, ATP at Km
# [39] = biological target: TIE2(R849W) (Homo sapiens, UniProt Q02763, R849W); conditions: 1 µM, ATP at Km
# [40] = biological target: alpha 2A (h) (Homo sapiens, UniProt P08913); experiment: biochemical; conditions: read-out: % Inhibition of Control Specific Binding
# Sequence of alpha 2A (h) (P08913 whole entry): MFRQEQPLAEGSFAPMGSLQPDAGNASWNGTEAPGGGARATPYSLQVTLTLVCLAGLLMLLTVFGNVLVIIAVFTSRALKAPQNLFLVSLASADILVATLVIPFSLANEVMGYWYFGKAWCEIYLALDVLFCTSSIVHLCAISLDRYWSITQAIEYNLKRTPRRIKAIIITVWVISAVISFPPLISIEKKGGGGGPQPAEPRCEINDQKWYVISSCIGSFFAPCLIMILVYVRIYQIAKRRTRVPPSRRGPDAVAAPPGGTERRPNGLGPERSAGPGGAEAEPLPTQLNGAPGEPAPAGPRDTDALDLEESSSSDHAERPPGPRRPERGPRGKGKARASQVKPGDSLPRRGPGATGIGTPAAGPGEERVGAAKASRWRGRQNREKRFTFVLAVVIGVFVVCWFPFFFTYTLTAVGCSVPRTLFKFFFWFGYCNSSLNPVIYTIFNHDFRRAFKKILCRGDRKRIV
# [41] = biological target: alpha 2B (h) (Homo sapiens, UniProt P18089); experiment: biochemical; conditions: read-out: % Inhibition of Control Specific Binding
# [42] = biological target: CB2 (h) (Homo sapiens, UniProt P34972); experiment: biochemical; conditions: read-out: % Inhibition of Control Specific Binding
# [43] = biological target: GABAB(1b) (h) (Homo sapiens, UniProt Q9UBS5); experiment: biochemical; conditions: read-out: % Inhibition of Control Specific Binding
compound,measurement,setting,value
"Cn1ncc2cc(-c3cnc(N)c(Cl)c3N3CCC4(CCNC4=O)CC3)ccc21 [Compound 109, 8-(2-Amino-3-chloro-5-(1-methyl-1H-indazol-5-yl)pyridin-4-yl)-2,8-diazaspiro[4.5]decan-1-one]",inhibition at 10 µM,[1],0%
same,inhibition at 10 µM,[2],2%
same,inhibition at 10 µM,[3],4%
same,% effect,[4],5%
same,% effect,[5],5%
same,% effect,[6],-4%
same,% effect,[7],-3%
same,% effect,[8],-6%
same,% effect,[9],17%
same,% effect,[10],-9%
same,% effect,[11],-3%
same,% effect,[12],-3%
same,% effect,[13],-8%
same,% effect,[14],2%
same,% effect,[15],4%
same,% effect,[16],11%
same,% effect,[17],4%
same,% effect,[18],8%
same,% effect,[19],11%
same,% effect,[20],2%
same,% effect,[21],6%
same,% effect,[22],-5%
same,% effect,[23],-6%
same,% effect,[24],6%
same,% effect,[25],-2%
same,% effect,[26],-12%
same,% effect,[27],7%
same,% effect,[28],4%
same,LBF,[29],43%
same,% Inhibition of Control Specific Binding,[30],0%
same,% Inhibition of Control Specific Binding,[31],-3%
same,% Inhibition of Control Specific Binding,[32],71%
same,% Inhibition of Control Specific Binding,[33],12%
same,% effect,[34],-7%
same,% effect,[35],-13%
same,% effect,[36],11%
same,% effect,[37],-10%
same,% effect,[38],1%
same,% effect,[39],-9%
same,inhibition at 10 µM,[40],11%
same,inhibition at 10 µM,[41],10%
same,inhibition at 10 µM,[42],29%
same,inhibition at 10 µM,[43],2%
